# In patent US11447472B2, “Polymorophs of 5-aza-4′-thio-2′-deoxycytidine” (Southern Research Institute, priority 2020, dated 2022):
# Like-named read-outs stand apart in the source and are kept apart here.
# Columns and labels:
# [1] = Physical stability of solid forms under accelerated aging conditions (AAC, 25° C./60% RH, two days), HT-XRPD; conditions: for AAC (form found after storage): Table 4, storage at 25° C., 60% relative humidity; for conversion after storage at 25° C., 60% relative humidity: two days
# Procedure: All solids were exposed to accelerated aging conditions (2 days at 25° C./60% RH) and re-analyzed by HT-XRPD.
# Subsequently, the solids were placed at 25° C./60% RH for two days (AAC) and re-analyzed by XRPD.
# Subsequently, all solids were exposed to accelerated aging conditions for two days (AAC, 25° C./60% RH) and re-analyzed by HT-XRPD.
# Subsequently, all the solids were exposed to accelerated aging conditions (25° C./60% RH) for two days and re-analyzed by HT-XRPD.
# All solids were then exposed to accelerated aging conditions (2 days at 25° C./60% RH) followed by HT-XRPD re-analysis.
# Subsequently, all solids were exposed to accelerated aging conditions (2 days at 25° C./60% RH) and re-analyzed by HT-XRPD.
# Subsequently, all solids were exposed to accelerated aging conditions (25° C./60% RH) for two days and then re-analyzed by HT-XRPD.
# [2] = Dissolution rate (IDR) at pH 1.2, 6.5 and 5.0; assay type: physicochemical
# in vivo = conditions: male, SD, rat, 2 mg/kg; for concentration at 0.25 h / concentration at 0.5 h / concentration at 1 h / concentration at 2 h / concentration at 4 h / concentration at 6 h / concentration at 8 h / concentration at 24 h: Concentration (plasma); for AUC(0-inf) / AUC(0-t) / Cmax / MRT inf / half-life / Tmax: po; for AUC(0-inf): AUCInf; for AUC(0-t): AUClast; for MRT inf: MRTInf_obs
# [3] = in vivo, 2 mg/kg
compound,measurement,setting,value
"Nc1ncn([C@H]2C[C@H](O)[C@@H](CO)S2)c(=O)n1 [Form E, 5-Aza-4′-thio-2′-deoxycytidine]",AAC (form found after storage),"[1]; sample obtained by ECP from DMA/TBME (80/20, v/v)",A + F
same,"conversion after storage at 25° C., 60% relative humidity",[1]; text,converts to Form A
same,"conversion after storage at 25° C., 60% relative humidity","[1]; text, listed as E",convert to Form A
"Nc1ncn([C@H]2C[C@H](O)[C@@H](CO)S2)c(=O)n1 [Form G2, 5-Aza-4′-thio-2′-deoxycytidine]","conversion after storage at 25° C., 60% relative humidity",[1]; text,convert to Form A
same,"conversion after storage at 25° C., 60% relative humidity","[1]; text, listed as G2",convert to Form A
"Nc1ncn([C@H]2C[C@H](O)[C@@H](CO)S2)c(=O)n1 [A + D2, 5-Aza-4′-thio-2′-deoxycytidine]",AAC (form found after storage),[1]; sample obtained by ECP from MeOH,A + L
"Nc1ncn([C@H]2C[C@H](O)[C@@H](CO)S2)c(=O)n1 [Form D2, 5-Aza-4′-thio-2′-deoxycytidine]","conversion after storage at 25° C., 60% relative humidity","[1]; text, listed as D2",convert to Form A
"Nc1ncn([C@H]2C[C@H](O)[C@@H](CO)S2)c(=O)n1 [Form J, 5-Aza-4′-thio-2′-deoxycytidine]","conversion after storage at 25° C., 60% relative humidity",[1]; text,converts to Form A
same,"conversion after storage at 25° C., 60% relative humidity","[1]; text, listed as J",convert to Form A
"Nc1ncn([C@H]2C[C@H](O)[C@@H](CO)S2)c(=O)n1 [Form G1, 5-Aza-4′-thio-2′-deoxycytidine]","conversion after storage at 25° C., 60% relative humidity",[1]; text,convert to Form A
same,"conversion after storage at 25° C., 60% relative humidity","[1]; text, listed as G1",convert to Form A
"Nc1ncn([C@H]2C[C@H](O)[C@@H](CO)S2)c(=O)n1 [Form B, 5-Aza-4′-thio-2′-deoxycytidine]",physical stability,[1]; in words,physically unstable
same,"conversion after storage at 25° C., 60% relative humidity",[1]; text,converted to Form A
same,"conversion after storage at 25° C., 60% relative humidity","[1]; text, listed as B",convert to Form A
"Nc1ncn([C@H]2C[C@H](O)[C@@H](CO)S2)c(=O)n1 [Form K, 5-Aza-4′-thio-2′-deoxycytidine]","conversion after storage at 25° C., 60% relative humidity",[1]; text,converted to Form F
same,"conversion after storage at 25° C., 60% relative humidity","[1]; text, listed as K",convert to Form A
"Nc1ncn([C@H]2C[C@H](O)[C@@H](CO)S2)c(=O)n1 [Form C2, 5-Aza-4′-thio-2′-deoxycytidine]","conversion after storage at 25° C., 60% relative humidity","[1]; text, listed as C2",convert to Form A
"Nc1ncn([C@H]2C[C@H](O)[C@@H](CO)S2)c(=O)n1 [Form H, 5-Aza-4′-thio-2′-deoxycytidine]",AAC (form found after storage),[1]; sample from the method/solvent of that table row,F + H
same,"conversion after storage at 25° C., 60% relative humidity",[1],convert to Form A
same,conversion of the form,[1]; when obtained from NMP,converted to Form F
same,conversion of the form,[1]; when obtained from other solvents,converted to Form A
"Nc1ncn([C@H]2C[C@H](O)[C@@H](CO)S2)c(=O)n1 [Form F, 5-Aza-4′-thio-2′-deoxycytidine]",IDR,"[2]; FaSSIF, pH 6.5",2.7 ± 0.05 mg/mL/Cm^2/min
same,IDR,"[2]; FeSSIF, pH 5.0",6.0 ± 0.70 mg/mL/Cm^2/min
same,IDR,"[2]; SGF, pH 1.2",7.0 ± 1.26 mg/mL/Cm^2/min
same,concentration at 0.25 h,in vivo; Mean,310 ng/mL
same,concentration at 0.5 h,in vivo; Mean,768 ng/mL
same,concentration at 1 h,in vivo; Mean,934 ng/mL
same,concentration at 2 h,in vivo; Mean,755 ng/mL
same,concentration at 4 h,in vivo; Mean,457 ng/mL
same,concentration at 6 h,in vivo; Mean,324 ng/mL
same,concentration at 8 h,in vivo; Mean,222 ng/mL
same,concentration at 24 h,in vivo; Mean,5.43 ng/mL
same,concentration at 0.25 h,in vivo; individual rat,225 ng/mL
same,concentration at 0.5 h,in vivo; individual rat,755 ng/mL
same,concentration at 1 h,in vivo; individual rat,886 ng/mL
same,concentration at 2 h,in vivo; individual rat,746 ng/mL
same,concentration at 4 h,in vivo; individual rat,536 ng/mL
same,concentration at 6 h,in vivo; individual rat,362 ng/mL
same,concentration at 8 h,in vivo; individual rat,245 ng/mL
same,concentration at 24 h,in vivo; individual rat,7.04 ng/mL
same,AUC(0-inf),in vivo; Mean,5820 ng·h/mL
same,AUC(0-inf),in vivo; individual rat,6210 ng·h/mL
same,AUC(0-t),in vivo; Mean,5800 ng·h/mL
same,AUC(0-t),in vivo; individual rat,6180 ng·h/mL
same,Cmax,in vivo; Mean,934 ng/mL
same,Cmax,in vivo; individual rat,886 ng/mL
same,MRT inf,in vivo; Mean,4.86 h
same,MRT inf,in vivo; individual rat,5.09 h
same,half-life,"in vivo; T1/2, Mean",3 h
same,half-life,"in vivo; T1/2, individual rat",3.15 h
same,Tmax,in vivo; Mean,1 h
same,Tmax,in vivo; individual rat,1 h
same,"Concentration (plasma), individual rat","[3]; male, SD, 0.25 h",394 ng/mL
same,"Concentration (plasma), individual rat","[3]; male, SD, 0.5 h",780 ng/mL
same,"Concentration (plasma), individual rat","[3]; male, SD, 1 h",982 ng/mL
same,"Concentration (plasma), individual rat","[3]; male, SD, 2 h",764 ng/mL
same,"Concentration (plasma), individual rat","[3]; male, SD, 4 h",377 ng/mL
same,"Concentration (plasma), individual rat","[3]; male, SD, 6 h",285 ng/mL
same,"Concentration (plasma), individual rat","[3]; male, SD, 8 h",199 ng/mL
same,"Concentration (plasma), individual rat","[3]; male, SD, 24 h",3.81 ng/mL
same,"AUCInf, individual rat","[3]; male, SD, po",5435 ng·h/mL
same,"AUClast, individual rat","[3]; male, SD, po",5419 ng·h/mL
same,"Cmax, individual rat","[3]; male, SD, po",982 ng/mL
same,"MRTInf_obs, individual rat","[3]; male, SD, po",4.63 h
same,"T1/2, individual rat","[3]; male, SD, po",2.86 h
same,AUC values higher than SM,"[3]; male, SD, rat",about 30%
same,"AUC_%Extrap_obs, Mean","[3]; male, SD, rat",0.402%
same,"AUClast/D, Mean","[3]; male, SD, rat",2900 ng·h/mL per mg/kg
same,Cmax value relative to SM,[3]; rat,about 1.4 times
"Nc1ncn([C@H]2C[C@H](O)[C@@H](CO)S2)c(=O)n1 [Form I, 5-Aza-4′-thio-2′-deoxycytidine]","conversion after storage at 25° C., 60% relative humidity",[1]; text,converts to Form A
same,"conversion after storage at 25° C., 60% relative humidity","[1]; text, listed as I",convert to Form A
